Data taken from US12673050B2, “Compositions and their use for the treatment of A1-antitrypsin deficiency” (Centessa Pharmaceuticals (UK) Limited, priority 2021, dated 2026).

Columns and labels:
human M A1AT = target: T1, human M A1AT (Homo sapiens, UniProt P01009); test: A1AT cell secretion assay using HEK-M cells (ELISA); type: cell-based; conditions: 10 μM, 48 h
T1 construct: expressed in transfected cells; host or cells: HEK-M cells (HEK-EBNA with M A1AT plasmid)
Protocol: HEK-M cells, a human embryonic kidney cell line stably transfected with M A1AT, were plated into 96 well plates (3.0×10^5 cells/ml with 200 μl of media/well) overnight at 37° C. in a humidified atmosphere containing 5% CO2. Following incubation cells were washed with 200 μl serum-free media three times and media was replaced with serum-free media containing either vehicle, 10 μM suberanilohydroxamic acid (SAHA), (S)-1-((2-(trifluoromethyl)phenyl)sulfonyl)piperidine-3-carboxylic acid (at 10 μM) or (R)-1-((2-(trifluoromethyl)phenyl)sulfonyl)piperidine-3-carboxylic acid (at 10 μM) in replicates of six for 48 h in a 37° C. incubator in a final volume of 200 μl. At the end of the incubation step the supernatants were removed from the wells, centrifuged at 1000×g at 4° C. for 10 min and were assayed for human A1AT levels by ELISA (Human Serpin A1/α1 antitrypsin duo set ELISA, R& D Systems, DY1268) per manufacturer's instructions.
Briefly, a 96 well plate was coated with human A1AT capture antibody overnight at room temperature (1:180 dilution from stock, 100 μl final volume/well). The capture antibody was then removed and wells washed three times with 300 μl wash buffer (0.05% Tween in PBS) and then 200 μl reagent diluent (25% Tween 20 in PBS) was incubated in each well for 1 h at room temperature. Diluted samples, standards (125, 250, 500, 1000, 2000, 4000 and 8000 pg/ml A1AT) or blanks were then added to each well in duplicate and the plates were covered with a plate sealer and left at room temperature for 2 h. […] After which, 50 μl stop solution (2M H2SO4) was added and optical density (OD) of each well was read at 450 nm with 570 nm blank subtracted from each well using a microplate reader. A 4 parameter logistic curve was constructed using GraphPad Prism 7 and A1AT concentrations were determined in each sample by interpolation from a standard curve and multiplying by the appropriate dilution factor.
The amount of human A1AT secreted from transfected HEK-EBNA cells into the media was measured by ELISA. […]

[1] = Pharmacokinetics in mice (blood, UPLC-MS/MS); type: in vivo, mouse; conditions: for Cmax / AUC / AUC(0-inf) / half-life / clearance / Vd: mouse, whole blood, male C57Bl/6 mice, blood; for Cmax: po, orally 10 mg/kg by gavage; for AUC / AUC(0-inf) / half-life / clearance / Vd: intravenously 2 mg/kg or orally 10 mg/kg; for half-life: read-out: Half-life in blood (t1/2) (converted); for clearance: read-out: Observed clearance; for Vd: read-out: Volume of distribution (Vz)
Protocol: (§1) (S)-1-((2-(trifluoromethyl)phenyl)sulfonyl)piperidine-3-carboxylic acid was administered to male C57BI/6 mice intravenously (2 mg/kg) or orally (10 mg/kg) by gavage. Whole blood diluted with water was prepared from these dosed animals over a time course up to 24 hours post dose to allow blood concentrations of drug to be measured by UPLC-MS/MS.
as §1, with “(R)-1-((2-(trifluoromethyl)phenyl)sulfonyl)piperidine-3-carboxylic” for “(S)-1-((2-(trifluoromethyl)phenyl)sulfonyl)piperidine-3-carboxylic”

[2] = Mouse hepatocyte stability; type: in vitro ADME; conditions: male, C57BL6, cryopreserved hepatocytes in suspension, 37° C.; for hepatocyte CLint: read-out: intrinsic clearance (CLint) in mouse hepatocytes
Protocol: The intrinsic clearance (CLint) and half-life of (S)-1-((2-(trifluoromethyl)phenyl)sulfonyl)piperidine-3-carboxylic acid and (R)-1-((2-(trifluoromethyl)phenyl)sulfonyl)piperidine-3-carboxylic acid were measured in a hepatocyte suspension of cryopreserved male C57BL6 mouse hepatocytes or a mixed hepatocyte suspension of cryopreserved human hepatocytes. Briefly, the compounds were incubated with hepatocyte suspensions at 37° C. over a time course and the remaining compound at each time point was assessed by mass spectrometry (UPLC-MS/MS). CLint in mouse hepatocytes was <3 μl/min/10^6 cells and in human hepatocytes was <3 μl/min/10^6 cells for both compounds.

CYP 1A2 = target: T2, CYP 1A2 (Homo sapiens, UniProt P05177); test: CYP inhibition, E. coli CYPEX membranes with probe substrates; type: in vitro ADME
T2 construct: purchased CYPEX; host or cells: E. coli
T2 sequence (P05177 1-516): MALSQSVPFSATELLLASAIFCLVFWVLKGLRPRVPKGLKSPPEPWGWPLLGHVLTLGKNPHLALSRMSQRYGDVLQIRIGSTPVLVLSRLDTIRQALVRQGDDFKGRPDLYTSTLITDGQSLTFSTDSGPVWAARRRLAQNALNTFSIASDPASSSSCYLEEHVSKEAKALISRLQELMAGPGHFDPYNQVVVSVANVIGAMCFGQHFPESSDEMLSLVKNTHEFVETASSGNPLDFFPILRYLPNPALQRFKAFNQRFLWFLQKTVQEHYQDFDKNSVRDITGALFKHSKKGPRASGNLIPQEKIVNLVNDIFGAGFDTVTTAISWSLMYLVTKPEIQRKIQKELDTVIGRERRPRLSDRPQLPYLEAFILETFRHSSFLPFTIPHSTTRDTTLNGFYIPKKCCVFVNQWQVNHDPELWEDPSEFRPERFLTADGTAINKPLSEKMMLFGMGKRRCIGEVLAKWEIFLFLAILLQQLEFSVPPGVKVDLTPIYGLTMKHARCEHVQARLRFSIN
Protocol: (§2) Using E. coli CYPEX membranes in combination with specific probe substrates, the inhibition of individual CYPs by (S)-1-((2-(trifluoromethyl)phenyl)sulfonyl)piperidine-3-carboxylic acid and (R)-1-((2-(trifluoromethyl)phenyl)sulfonyl)piperidine-3-carboxylic acid was assessed (see Weaver et al., 2003, Drug Metab Dispos 31:7, 955-966).

CYP 2C19 = target: T3, CYP 2C19 (Homo sapiens, UniProt P33261); test: as above; type: in vitro ADME
T3 construct: purchased CYPEX; host or cells: E. coli
Protocol: as §2

CYP 2C9 = target: T4, CYP 2C9 (Homo sapiens, UniProt P11712); test: as above; type: in vitro ADME
T4 construct: purchased CYPEX; host or cells: E. coli
Protocol: as §2

CYP 2D6 = target: T5, CYP 2D6 (Homo sapiens, UniProt P10635); test: as above; type: in vitro ADME
T5 construct: purchased CYPEX; host or cells: E. coli
Protocol: as §2

CYP 3A4 = target: T6, CYP 3A4 (Homo sapiens, UniProt P08684); test: as above; type: in vitro ADME
T6 construct: purchased CYPEX; host or cells: E. coli
Protocol: as §2

T4 sequence (P11712 whole entry): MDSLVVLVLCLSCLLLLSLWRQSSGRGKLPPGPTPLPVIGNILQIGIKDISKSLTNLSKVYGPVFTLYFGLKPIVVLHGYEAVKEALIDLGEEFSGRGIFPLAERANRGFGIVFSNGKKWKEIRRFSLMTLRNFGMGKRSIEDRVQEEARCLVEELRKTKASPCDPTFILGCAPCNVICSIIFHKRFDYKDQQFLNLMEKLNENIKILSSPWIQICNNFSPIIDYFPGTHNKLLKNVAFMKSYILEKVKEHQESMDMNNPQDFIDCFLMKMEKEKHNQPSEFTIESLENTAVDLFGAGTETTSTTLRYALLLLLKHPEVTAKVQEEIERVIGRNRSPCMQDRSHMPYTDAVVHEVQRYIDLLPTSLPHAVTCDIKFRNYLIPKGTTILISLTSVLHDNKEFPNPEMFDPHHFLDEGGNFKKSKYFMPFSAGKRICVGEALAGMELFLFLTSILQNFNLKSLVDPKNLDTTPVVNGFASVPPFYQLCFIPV
T5 sequence (P10635 whole entry): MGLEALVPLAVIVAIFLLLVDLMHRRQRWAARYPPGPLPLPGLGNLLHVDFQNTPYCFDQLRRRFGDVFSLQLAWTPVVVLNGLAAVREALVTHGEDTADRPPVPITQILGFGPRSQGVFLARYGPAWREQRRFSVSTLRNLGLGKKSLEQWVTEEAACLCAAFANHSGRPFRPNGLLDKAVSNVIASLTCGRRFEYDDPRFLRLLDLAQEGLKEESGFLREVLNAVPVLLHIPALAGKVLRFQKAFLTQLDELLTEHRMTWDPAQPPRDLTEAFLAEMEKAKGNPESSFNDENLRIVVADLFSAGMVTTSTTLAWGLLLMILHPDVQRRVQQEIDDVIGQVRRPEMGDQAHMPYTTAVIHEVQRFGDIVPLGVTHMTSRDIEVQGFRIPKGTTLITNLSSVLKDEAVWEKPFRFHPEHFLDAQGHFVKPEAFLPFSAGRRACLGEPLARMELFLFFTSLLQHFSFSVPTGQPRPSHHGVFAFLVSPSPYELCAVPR
T6 sequence (P08684 whole entry): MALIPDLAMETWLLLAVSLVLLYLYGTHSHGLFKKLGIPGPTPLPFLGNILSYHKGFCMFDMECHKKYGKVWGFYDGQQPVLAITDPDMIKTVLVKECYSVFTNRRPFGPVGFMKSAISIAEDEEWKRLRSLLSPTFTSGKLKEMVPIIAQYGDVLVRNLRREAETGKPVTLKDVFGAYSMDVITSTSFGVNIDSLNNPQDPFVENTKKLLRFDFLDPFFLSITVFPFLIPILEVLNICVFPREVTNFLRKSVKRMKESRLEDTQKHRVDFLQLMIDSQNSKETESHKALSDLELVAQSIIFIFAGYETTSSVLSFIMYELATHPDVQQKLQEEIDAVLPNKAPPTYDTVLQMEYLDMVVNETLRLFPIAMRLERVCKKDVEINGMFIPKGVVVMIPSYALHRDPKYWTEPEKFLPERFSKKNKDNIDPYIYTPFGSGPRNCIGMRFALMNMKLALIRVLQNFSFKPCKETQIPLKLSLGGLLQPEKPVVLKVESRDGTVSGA
T3 sequence (P33261 whole entry): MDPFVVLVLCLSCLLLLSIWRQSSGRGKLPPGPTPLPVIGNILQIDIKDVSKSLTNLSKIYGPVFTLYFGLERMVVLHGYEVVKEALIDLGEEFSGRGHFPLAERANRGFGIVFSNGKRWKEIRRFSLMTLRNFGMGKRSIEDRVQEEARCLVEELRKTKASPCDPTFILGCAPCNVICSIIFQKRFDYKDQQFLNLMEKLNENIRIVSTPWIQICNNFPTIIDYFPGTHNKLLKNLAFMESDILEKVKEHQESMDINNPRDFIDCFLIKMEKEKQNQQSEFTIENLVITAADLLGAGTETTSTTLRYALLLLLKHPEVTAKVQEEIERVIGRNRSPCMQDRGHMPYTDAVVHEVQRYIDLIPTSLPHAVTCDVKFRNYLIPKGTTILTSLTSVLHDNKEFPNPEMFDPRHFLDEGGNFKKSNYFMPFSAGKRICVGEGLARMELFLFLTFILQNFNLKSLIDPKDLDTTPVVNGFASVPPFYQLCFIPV
T1 sequence (P01009 25-418): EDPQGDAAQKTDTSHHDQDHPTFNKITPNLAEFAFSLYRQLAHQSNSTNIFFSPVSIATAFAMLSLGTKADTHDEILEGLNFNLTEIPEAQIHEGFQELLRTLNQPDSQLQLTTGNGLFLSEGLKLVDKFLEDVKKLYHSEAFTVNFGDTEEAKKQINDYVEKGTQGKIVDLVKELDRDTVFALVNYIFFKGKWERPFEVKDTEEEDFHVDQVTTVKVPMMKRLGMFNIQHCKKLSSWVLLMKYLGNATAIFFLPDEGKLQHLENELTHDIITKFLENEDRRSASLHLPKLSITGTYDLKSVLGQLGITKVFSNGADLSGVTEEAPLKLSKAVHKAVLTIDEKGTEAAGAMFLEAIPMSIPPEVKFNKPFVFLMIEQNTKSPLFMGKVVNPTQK

Cmax [1] | AUC [1] | AUC(0-inf) [1] | half-life [1] | clearance [1] | Vd [1] | half-life [2] | hepatocyte CLint [2] | IC50 (CYP 1A2) | IC50 (CYP 2C19) | IC50 (CYP 2C9) | IC50 (CYP 2D6) | IC50 (CYP 3A4) | AUC lower than S enantiomer ([1]; mice, Examples 7 and 8) | t½ shorter than S enantiomer ([1]; mice, Examples 7 and 8) | Compound | secretion of human M A1AT into cell supernatant (human M A1AT)
33500 ng/mL | 54200 ng·h/mL | 54400 ng·h/mL | 1.2 h | 4.7 mL/min/kg | 0.49 L/kg | > 7.67 h | < 3 µL/min/1e6 cells | > 50 µM | > 50 µM | > 50 µM | > 50 µM | > 50 µM |  |  | O=C(O)[C@H]1CCCN(S(=O)(=O)c2ccccc2C(F)(F)F)C1 [(S)-1-((2-(Trifluoromethyl)phenyl)sulfonyl)piperidine-3-carboxylic acid] | does not stimulate secretion of human M A1AT
15600 ng/mL | 24200 ng·h/mL | 24700 ng·h/mL | 0.54 h | 8.2 mL/min/kg | 0.38 L/kg | > 7.67 h | < 3 µL/min/1e6 cells | > 50 µM | > 50 µM | > 50 µM | > 50 µM | > 50 µM | 2.2 fold | 2.2 fold | O=C(O)[C@@H]1CCCN(S(=O)(=O)c2ccccc2C(F)(F)F)C1 [(R)-1-((2-(Trifluoromethyl)phenyl)sulfonyl)piperidine-3-carboxylic acid] | does not stimulate secretion of human M A1AT
